Assay results: PubChem BioAssay AID248 (DTP/NCI, 2004)
“And” between values parts separate entries of the source, which are not always exact repeats. Identical values can stand only once. Inconclusive results and toxic doses are left out.

Tested on: L1210 leukemia ip in BDF1 mice, survival T/C
Assay: NCI In Vivo Anticancer Drug Screen. Data for tumor model L1210 Leukemia (intraperitoneal) in B6D2F1 (BDF1) mice
Details: endpoint: mean survival time, higher = longer survival
Outline: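 Read-out is survival time, reported as the treated-group measurement over the vehicle-control measurement.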

[1] = dose: 100.0 mg/kg/injection, schedule: Q01DX001 (ip), vehicle: carboxymethylcellulose (CMC)
[2] = dose: 200.0 mg/kg/injection, schedule: Q01DX001 (ip), vehicle: carboxymethylcellulose (CMC)
[3] = dose: 100.0 mg/kg/injection, schedule: Q01DX001 (ip), vehicle: saline
[4] = dose: 200.0 mg/kg/injection, schedule: Q01DX001 (ip), vehicle: saline
[5] = dose: 400.0 mg/kg/injection, schedule: Q01DX001 (ip), vehicle: saline
[6] = dose: 100.0 mg/kg/injection, schedule: Q04DX003 (ip), vehicle: saline with Tween-80
[7] = dose: 200.0 mg/kg/injection, schedule: Q04DX003 (ip), vehicle: saline with Tween-80
[8] = dose: 400.0 mg/kg/injection, schedule: Q04DX003 (ip), vehicle: saline with Tween-80
[9] = dose: 100.0 mg/kg/injection, schedule: Q04DX002 (ip), vehicle: saline with Tween-80
[10] = dose: 200.0 mg/kg/injection, schedule: Q04DX002 (ip), vehicle: saline with Tween-80
[11] = dose: 400.0 mg/kg/injection, schedule: Q04DX002 (ip), vehicle: saline with Tween-80
[12] = dose: 100.0 mg/kg/injection, schedule: Q01DX009 (ip), vehicle: saline with Tween-80
[13] = dose: 200.0 mg/kg/injection, schedule: Q01DX009 (ip), vehicle: saline with Tween-80
[14] = dose: 100.0 mg/kg/injection, schedule: Q01DX009 (ip), vehicle: Klucel (hydroxypropylcellulose) (HPC)
[15] = dose: 200.0 mg/kg/injection, schedule: Q01DX009 (ip), vehicle: Klucel (hydroxypropylcellulose) (HPC)
[16] = dose: 400.0 mg/kg/injection, schedule: Q01DX009 (ip), vehicle: Klucel (hydroxypropylcellulose) (HPC)
[17] = dose: 100.0 mg/kg/injection, schedule: Q04DX002 (ip), vehicle: Klucel (hydroxypropylcellulose) (HPC)
[18] = dose: 100.0 mg/kg/injection, schedule: Q04DX003 (ip), vehicle: Klucel (hydroxypropylcellulose) (HPC)
[19] = dose: 200.0 mg/kg/injection, schedule: Q04DX002 (ip), vehicle: Klucel (hydroxypropylcellulose) (HPC)
[20] = dose: 200.0 mg/kg/injection, schedule: Q04DX003 (ip), vehicle: Klucel (hydroxypropylcellulose) (HPC)
[21] = dose: 400.0 mg/kg/injection, schedule: Q04DX002 (ip), vehicle: Klucel (hydroxypropylcellulose) (HPC)
[22] = dose: 400.0 mg/kg/injection, schedule: Q04DX003 (ip), vehicle: Klucel (hydroxypropylcellulose) (HPC)

## NC(=S)N/N=C/c1cc2c(cc1[N+](=O)[O-])OCO2
dose: 50.0 mg/kg/injection, schedule: Q01DX001 (ip), vehicle: carboxymethylcellulose (CMC)
  T/C: 98 % of control
[1]
  T/C: 101 % of control
[2]
  T/C: 93 % of control

## Cc1cc2c(c(O)c1CN1CCOCC1)C1=C(CCCC1)C(C)(C)O2
[1]
  T/C: 107 % of control
[2]
  T/C: 91 % of control
dose: 400.0 mg/kg/injection, schedule: Q01DX001 (ip), vehicle: carboxymethylcellulose (CMC)
  T/C: 86 % of control

## COc1cc(C)c(C(=O)c2ccccc2NS(=O)(=O)c2ccc(C)cc2)cc1OC
dose: 50.0 mg/kg/injection, schedule: Q01DX001 (ip), vehicle: other
  T/C: 98 % of control
dose: 100.0 mg/kg/injection, schedule: Q01DX001 (ip), vehicle: other
  T/C: 95 % of control
dose: 200.0 mg/kg/injection, schedule: Q01DX001 (ip), vehicle: other
  T/C: 92 % of control
dose: 400.0 mg/kg/injection, schedule: Q01DX001 (ip), vehicle: other
  T/C: 104 % of control

## CC1CC2CCCC(O)=C2C(=O)O1 (stereo not given)
[3]
  T/C: 102 % of control
[4]
  T/C: 102 % of control
[5]
  T/C: 105 % of control

## Cc1ccc(N=C(N)NC#N)cc1
[6]
  T/C: 89 % of control
[7]
  T/C: 86 % of control
[8]
  T/C: 88 % of control

## CCc1ccc(OC/C=C(/C)CC/C=C(\C)CCC=C(C)C)cc1
[9]
  T/C: 110 % of control
[10]
  T/C: 97 % of control
[11]
  T/C: 87 % of control

## c1ccc2sc(SN3CCOCC3)nc2c1
[12]
  T/C: 95 % of control
[6]
  T/C: 100 % of control
[13]
  T/C: 92 % of control
[7]
  T/C: 87 % of control
dose: 400.0 mg/kg/injection, schedule: Q01DX009 (ip), vehicle: saline with Tween-80
  T/C: 92 % of control
[8]
  T/C: 89 % of control

## CC(C)CCC(=O)CCC1CCCCC1
[3]
  T/C: 92 % of control
[4]
  T/C: 92 % of control
[5]
  T/C: 94 % of control

## CCCCNS(=O)(=O)c1ccc(OC)c(N)c1
[14]
  T/C: 98 % of control
[15]
  T/C: 104 % of control
[16]
  T/C: 97 % of control

## CCOC(=O)CNC(=O)Nc1ccc(C(=O)OCC)cc1
[12]
  T/C: 98 % of control
[13]
  T/C: 92 % of control

## O=C(CCc1ccc(C(=O)Nc2ccc(C3=NCCN3)cc2)cc1)Nc1ccc(C2=NCCN2)cc1
dose: 1.87 mg/kg/injection, schedule: Q01DX Z (ip), vehicle: carboxymethylcellulose (CMC)
  T/C: 101 % of control
dose: 3.75 mg/kg/injection, schedule: Q01DX Z (ip), vehicle: carboxymethylcellulose (CMC)
  T/C: 103 % of control
dose: 7.5 mg/kg/injection, schedule: Q01DX Z (ip), vehicle: carboxymethylcellulose (CMC)
  T/C: 99 % of control
dose: 15.0 mg/kg/injection, schedule: Q01DX Z (ip), vehicle: carboxymethylcellulose (CMC)
  T/C: 235 % of control
dose: 30.0 mg/kg/injection, schedule: Q01DX Z (ip), vehicle: carboxymethylcellulose (CMC)
  T/C: 223 % of control and 295 % of control
dose: 60.0 mg/kg/injection, schedule: Q01DX Z (ip), vehicle: carboxymethylcellulose (CMC)
  T/C: 239 % of control and 262 % of control

## O=C(NC(=S)Nc1ccccc1C(F)(F)F)c1ccccc1F
[14]
  T/C: 98 % of control and 103 % of control
[17]
  T/C: 105 % of control and 110 % of control
[18]
  T/C: 93 % of control
[15]
  T/C: 98 % of control and 111 % of control
[19]
  T/C: 105 % of control and 90 % of control
[20]
  T/C: 90 % of control
[16]
  T/C: 94 % of control and 108 % of control
[21]
  T/C: 94 % of control and 113 % of control
[22]
  T/C: 91 % of control

## N=C1SCCS1
dose: 100.0 mg/kg/injection, schedule: Q04DX002 (ip), vehicle: saline
  T/C: 92 % of control
dose: 200.0 mg/kg/injection, schedule: Q04DX002 (ip), vehicle: saline
  T/C: 101 % of control
dose: 400.0 mg/kg/injection, schedule: Q04DX002 (ip), vehicle: saline
  T/C: 105 % of control

## CCOC(=O)CNc1ccc(C(F)(F)F)cc1
[17]
  T/C: 104 % of control
[19]
  T/C: 104 % of control
[21]
  T/C: 97 % of control

## CC1(C)C=CC2CC2(C)C(=O)C1 (stereo not given)
[9]
  T/C: 98 % of control
[10]
  T/C: 112 % of control
[11]
  T/C: 102 % of control

## CC(=O)CCC[CH2][Sn]([c]1ccccc1)([c]1ccccc1)[c]1ccccc1
[9]
  T/C: 102 % of control
[10]
  T/C: 91 % of control
[11]
  T/C: 97 % of control

## c1ccc(-c2nc(-c3nccc4ccccc34)oc2-c2ccccc2)cc1
[3]
  T/C: 97 % of control
[4]
  T/C: 88 % of control
[5]
  T/C: 93 % of control

## CC1(C(=O)O)CC12c1ccccc1-c1ccccc12 (stereo not given)
dose: 100.0 mg/kg/injection, schedule: Q01DX001 (ip), vehicle: acetone
  T/C: 103 % of control
dose: 200.0 mg/kg/injection, schedule: Q01DX001 (ip), vehicle: acetone
  T/C: 92 % of control

## COc1ccc(N2C(=O)OC3(CCN(CCCC(=O)c4cccs4)CC3)C2=O)cc1
dose: 100.0 mg/kg/injection, schedule: Q01DX001 (ip), vehicle: Klucel (hydroxypropylcellulose) (HPC)
  T/C: 88 % of control
dose: 200.0 mg/kg/injection, schedule: Q01DX001 (ip), vehicle: Klucel (hydroxypropylcellulose) (HPC)
  T/C: 92 % of control
dose: 400.0 mg/kg/injection, schedule: Q01DX001 (ip), vehicle: Klucel (hydroxypropylcellulose) (HPC)
  T/C: 100 % of control

## O=C(CC(CC(=O)c1ccccc1)c1ccco1)c1ccccc1
[14]
  T/C: 90 % of control
[18]
  T/C: 94 % of control
[15]
  T/C: 94 % of control
[20]
  T/C: 101 % of control
[16]
  T/C: 86 % of control
[22]
  T/C: 92 % of control

## O=C(CC[n+]1ccccc1)NCCCCCCNC(=O)CC[n+]1ccccc1
dose: 5.0 mg/kg/injection, schedule: Q01DX001 (ip), vehicle: saline
  T/C: 107 % of control

## Cc1nccn1-c1ccc(Cl)cc1N=Cc1ccc(N(CCCl)CCCl)cc1Cl
[17]
  T/C: 95 % of control
[19]
  T/C: 95 % of control
[21]
  T/C: 106 % of control

## CCCCCCCCCCCCC(=O)O
[9]
  T/C: 98 % of control
[10]
  T/C: 98 % of control
[11]
  T/C: 105 % of control

## CC1C(c2ccccc2)OCN1CN1C(=O)C=CC1=O (stereo not given) (tested in a mixture with another compound)
[6]
  T/C: 90 % of control

## CC(c1c[nH]c2ccccc12)N1CCCCC1 (stereo not given)
dose: 12.5 mg/kg/injection, schedule: Q01DX009 (ip), vehicle: saline
  T/C: 115 % of control
dose: 25.0 mg/kg/injection, schedule: Q01DX009 (ip), vehicle: saline
  T/C: 107 % of control
dose: 25.0 mg/kg/injection, schedule: Q04DX003 (ip), vehicle: acetone
  T/C: 103 % of control
dose: 50.0 mg/kg/injection, schedule: Q01DX009 (ip), vehicle: saline
  T/C: 109 % of control
dose: 50.0 mg/kg/injection, schedule: Q04DX003 (ip), vehicle: acetone
  T/C: 95 % of control
[1]
  T/C: 96 % of control

## O=C(Nc1ccc(F)cc1)Nc1cccc(C(=O)O)c1
[14]
  T/C: 96 % of control
[18]
  T/C: 96 % of control
[15]
  T/C: 107 % of control
[20]
  T/C: 100 % of control
[16]
  T/C: 95 % of control
[22]
  T/C: 105 % of control

## CCn1c2ccccc2c2cc(/C=C\[N+](=O)[O-])ccc21
[17]
  T/C: 91 % of control
[19]
  T/C: 94 % of control
[21]
  T/C: 97 % of control

## OC(CCN1CCCCC1)(c1ccccc1)C1CC2C=CC1C2 (stereo not given)
dose: 6.25 mg/kg/injection, schedule: Q01DX009 (ip), vehicle: Klucel (hydroxypropylcellulose) (HPC)
  T/C: 106 % of control
dose: 12.5 mg/kg/injection, schedule: Q01DX009 (ip), vehicle: Klucel (hydroxypropylcellulose) (HPC)
  T/C: 105 % of control
dose: 25.0 mg/kg/injection, schedule: Q01DX009 (ip), vehicle: Klucel (hydroxypropylcellulose) (HPC)
  T/C: 100 % of control
dose: 25.0 mg/kg/injection, schedule: Q04DX003 (ip), vehicle: Klucel (hydroxypropylcellulose) (HPC)
  T/C: 106 % of control
dose: 50.0 mg/kg/injection, schedule: Q01DX009 (ip), vehicle: Klucel (hydroxypropylcellulose) (HPC)
  T/C: 105 % of control
dose: 50.0 mg/kg/injection, schedule: Q04DX003 (ip), vehicle: Klucel (hydroxypropylcellulose) (HPC)
  T/C: 97 % of control
[14]
  T/C: 103 % of control
[18]
  T/C: 95 % of control
